A word on the pEC50: it is the negative decadic logarithm of the EC50, by convention in mol/L. A high value points to a small EC50.

Here are results for 37 compounds from the supplement of paper PMC5580409.

Molecules are shown by their SMILES.

The subject of this assay is Plasmodium falciparum 3D7. Kind of assay: pEC50, asexual blood-stage growth inhibition. The conditions noted are these: 72 h. The procedure: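 Held-out test set measured in the Guy lab in 2014 with the same procedure as the primary St. Jude screen. P. falciparum 3D7 blood-stage culture (2% hematocrit, 1% parasitemia) was treated with compound for 72 h at 37 °C, and growth was read by SYBR Green I fluorescence. EC50 came from a four-parameter Hill fit over a 10-point dilution series […].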

Regarding `O=C(Cc1ccccc1)N1CCN(c2ccc([N+](=O)[O-])c(NC3CC3)c2)CC1`, the pEC50 is under 4.82.

The compound `Cc1ccccc1NCC(O)Cn1c2ccc(Cl)cc2c2cc(Cl)ccc21` (configuration not stated) returned a pEC50 of 5.44.

`Cc1cc(Cl)ccc1OCC(O)CNC1CCCC1` (configuration not stated) returned a pEC50 of 5.18.

For the compound `COc1ccc(CCN2C(=O)N(c3cccc(Cl)c3)C(=O)C2CC(=O)Nc2ccc(F)cc2)cc1` (configuration not stated), the pEC50 is under 4.82.

As for `CC(C)(CO)NCC(O)Cn1c2ccc(Cl)cc2c2cc(Cl)ccc21` (configuration not stated), the negative logarithm of the EC50 (pEC50) is 5.29.

On to `Nc1cccc(-c2nc3cc(Oc4ccc5[nH]c(-c6cccc(N)c6)nc5c4)ccc3[nH]2)c1`, for which the pEC50 is under 4.82.

`COc1ccccc1-c1c(C(F)(F)F)oc2c(CN3CCOCC3)c(O)ccc2c1=O`: the pEC50 is under 4.82.

The compound `CCOc1cc(C2C(C(=O)OC(C)CC)=C(C)NC3=C2C(=O)CC(c2ccc(Cl)cc2)C3)ccc1O` (configuration not stated) returned a pEC50 of under 4.82.

As for `OCCC1CN(Cc2cc(Cl)ccc2O)CCN1CCc1ccccc1` (configuration not stated), the pEC50 is under 4.82.

With `COC(=O)c1ccc(NC(=O)/C=C/c2ccccc2Cl)cc1`, the pEC50 was 5.26.

For `Cc1nn(C)c(C(=O)NNC(=O)Nc2ccc([N+](=O)[O-])cc2)c1Cl`, the pEC50 is 6.93.

As to `C=CCn1c(=O)/c(=C/C=C2\C=CN(CC)c3ccccc32)s/c1=C\c1sc(-c2ccccc2)c(-c2ccccc2)[n+]1CC`, the pEC50 worked out at 5.37.

In turn, `COc1ccc(CCNCC(O)Cn2c3ccccc3c3ccccc32)cc1OC` (configuration not stated) showed a pEC50 of 5.26.

In turn, `OCCCNCC(O)Cn1c2ccccc2c2ccccc21` (configuration not stated) returned a pEC50 of under 4.82.

In the case of `COc1cccc(CNc2nnnn2C)c1OCc1ccc(C)cc1`, the pEC50 was under 4.82.

As for `COc1ccc(OC)c(C2CC(=O)C3=C(C2)NC(=O)CC3c2cccc(Cl)c2Cl)c1` (configuration not stated), the pEC50 was 5.61.

Regarding `Cc1onc(-c2c(Cl)cccc2Cl)c1C(=O)Nc1cc(Cl)ccc1Cl`, the pEC50 was determined as 6.54.

With `CCOc1cc(C2C(C(=O)OCCOc3ccccc3)=C(C)NC3=C2C(=O)CC(c2ccc(Cl)cc2)C3)ccc1O` (configuration not stated), the pEC50 was under 4.82.

As to `CCOc1ccc(NCC(O)Cn2c3ccc(Cl)cc3c3cc(Cl)ccc32)cc1` (configuration not stated), the pEC50 was 5.13.

As for `O=C(CNCc1ccccc1)c1ccc(Br)cc1`, the pEC50 is under 4.82.

`CCOC(=O)C1=C(C)NC2=C(C(=O)CC(c3ccc(Cl)cc3)C2)C1c1cccc(OC)c1OC` (configuration not stated): the pEC50 is under 4.82.

In turn, `CCCCNC(=O)c1cn(C2CCCCC2)cc(C(=O)NC2CCN(Cc3ccccc3)CC2)c1=O` gave a pEC50 of under 4.82.

`COc1ccc(CNC2CCCCC2)cc1OCC(O)CN(C)Cc1ccccc1` (configuration not stated) had a pEC50 of under 4.82.

`COc1cc(C2CC(=O)NC3=C2C(=O)CC(c2ccc(F)cc2)C3)c(OC)cc1Br` (configuration not stated) gave a pEC50 of under 4.82.

As to `CCOC(=O)C1=C(C)NC2=C(C(=O)CC(c3ccc(Cl)cc3)C2)C1c1ccc(OCC)cc1` (configuration not stated), the pEC50 was under 4.82.

The compound `O=C(Cc1ccccc1)Nc1ccc(-c2nc3cc(-c4nc5cc(NC(=O)Cc6ccccc6)ccc5[nH]4)ccc3[nH]2)cc1` returned a pEC50 of under 4.82.

Consider `O=C1CC(c2ccc(Cl)c([N+](=O)[O-])c2)C2=C(CC(c3cccs3)CC2=O)N1` (configuration not stated), for which the pEC50 is under 4.82.

`OC(CNC1CCCCC1)Cn1c2ccccc2c2ccccc21` (configuration not stated): the pEC50 came to 5.33.

The compound `Cc1ccc(NC(=O)/C=C/c2ccccc2Cl)cc1` had a pEC50 of 5.46.

Compound `O=C(c1ccccc1)N1CCN(c2ccc([N+](=O)[O-])c(NC3CC3)c2)CC1` showed a pEC50 of under 4.82.

For the compound `OCCC1CN(Cc2cc(Cl)ccc2O)CCN1CCCc1ccccc1` (configuration not stated), the pEC50 was under 4.82.

`N=c1n(CCN2CCCCC2)c2ccccc2n1CC(O)COc1ccc(Cl)cc1` (configuration not stated) registered a pEC50 of 5.33.

On to `CCOc1ccc(-c2nonc2NC(=O)c2ccco2)cc1`, for which the negative logarithm of the EC50 (pEC50) is 6.71.

Take `CN(C)CC(O)Cn1c2ccc(Cl)cc2c2cc(Cl)ccc21` (configuration not stated): the pEC50 was under 4.82.

As to `CCn1c(CSCc2ccc(F)cc2)nnc1SCC(=O)Nc1cc(C(F)(F)F)ccc1Cl`, the pEC50 was under 4.82.

With `OC(CNCCc1ccccc1)COc1ccccc1Cl` (configuration not stated), the pEC50 is 5.3.

`COc1ccc(Cl)cc1NCC(O)Cn1c2ccccc2c2ccccc21` (configuration not stated): the negative logarithm of the EC50 (pEC50) is under 4.82.
